Test results published in patent US20250154198A1, “PEPTIDE INHIBITORS OF INTERLEUKIN-23 RECEPTOR” (Zealand Pharma A/S, priority 2021, published 2025).
Read-outs that look alike come from different tables or passages of the source. *1 amine or outer side, *2 acyl side, *3 side chain or, on linkers, in order; H or OH if unused. Where a SMILES comes first, the peptide text is derived from it. Bridges are numbered along the chain shown (N, C = ends). [ ]: non-standard residue; d: D form. Bip = N[C@@H](Cc1ccc(-c2ccccc2)cc1)C(=O)O; 2Nal = N[C@@H](Cc1ccc2ccccc2c1)C(=O)O; AEF = NCCOc1ccc(C[C@H](N)C(=O)O)cc1; αMeL = CC(C)C[C@](C)(N)C(=O)O; CH2COCH2 = O=C(C[*:1])C[*:2]; αMeK = C[C@](N)(CCCCN)C(=O)O

Key:
human IL-23R = molecular target: T1, human IL-23R (Homo sapiens, UniProt Q5VWK5); experiment: Binding assay (NanoBRET displacement of fluorophore-labelled reference compound) for estimating binding affinity to human IL-23R
T1 construct: UniProtKB—Q5VWK5, amino acids 22-629; secretion signal of the plasmid (Promega N1371); expressed in transfected cells
T1 sequence (Q5VWK5 22-629): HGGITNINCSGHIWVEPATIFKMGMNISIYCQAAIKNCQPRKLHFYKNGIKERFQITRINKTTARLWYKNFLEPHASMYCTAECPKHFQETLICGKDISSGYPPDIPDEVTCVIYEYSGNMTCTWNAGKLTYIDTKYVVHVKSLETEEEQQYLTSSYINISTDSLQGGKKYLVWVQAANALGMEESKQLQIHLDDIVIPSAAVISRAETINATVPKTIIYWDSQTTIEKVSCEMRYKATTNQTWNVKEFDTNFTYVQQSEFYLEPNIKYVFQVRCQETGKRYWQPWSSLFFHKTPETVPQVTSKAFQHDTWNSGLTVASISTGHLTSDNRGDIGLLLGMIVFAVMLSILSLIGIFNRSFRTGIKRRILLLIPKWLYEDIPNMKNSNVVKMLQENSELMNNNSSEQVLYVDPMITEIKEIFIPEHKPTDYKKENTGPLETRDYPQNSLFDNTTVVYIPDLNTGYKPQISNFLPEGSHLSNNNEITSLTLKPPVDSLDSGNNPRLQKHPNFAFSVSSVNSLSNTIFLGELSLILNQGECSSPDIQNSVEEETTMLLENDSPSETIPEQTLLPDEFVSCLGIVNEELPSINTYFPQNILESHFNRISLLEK

[1] = molecular target: IL-23 mediated phospho-STAT3 formation in DB cells (Homo sapiens, UniProt Q5VWK5); experiment: Functional inhibition of IL-23 mediated STAT3 signalling (phospho-STAT3 Tyr705 MSD) in DB cells; format: cell-based
From the text: Functional Inhibition of IL-23 Mediated STAT3 Signalling by Compounds
Upon binding of IL-23, the IL-23R forms a heterodimer signalling complex together with IL-12R β1, which through the JAK2/STAT3 pathway promotes phosphorylation of STAT3 to form phospho-STAT3.
The assay was used to quantify the functional antagonism of a compound and to rank order the inhibitor compounds according to their potency. For compounds tested in this assay, the response was normalized relative to control values to calculate the IC50 and maximal inhibitory response from a concentration response curve of the compound in presence of a fixed concentration of human IL-23.
The assay procedure was as follows. […] Following preincubation of the DB cells with inhibitor for 15 min in a cell incubator (37° C., 5% CO2), 20 μL of the prepared 3× the EC80 of hIL-23 solution was added to each well and incubated for 90 min in a cell incubator (37° C., 5% CO2). For some wells buffer only or IL-23 only corresponding to the EC80 was added to obtain readouts needed for normalization. To terminate the assay, the plate was spun at 1000 G for 5 min to pellet cells, the supernatant removed using an 8-channel manual pipette, and then added 50 μL/well Complete Lysis Buffer from the MSD STAT3 kit (Cat #K150SVD, Mesoscale) to the cell pellet. To completely lyse cells to release phospho-STAT3 for detection, the plate was shaken for 10 min at room temperature (500 rpm) sealed with aluminum foil and placed at −80° C. for a minimum of 15 min. Detection of the phospho-STAT3 level in the cell lysate from the individual wells was determined using the MSD STAT3 kit (Cat #K150SVD, Mesoscale) and read on a Meso QuickPlex SQ 120 plate reader (Mesoscale).
For data analysis raw data counts from the Meso QuickPlex SQ 120 plate reader were normalized relative to the response by the EC80 of hIL-23 alone (no compound added) and the buffer level. Compound potency (IC50) and maximal inhibitory response (% inhibition) were estimated by computer-aided curve fitting using a 4-parameter logistic (4PL) non-linear model.

[2] = Table 3-1, read-out: Ki hIL-23R
[3] = Table 3-1, DB cells, read-out: IC50 (pSTAT3)

Compound	Ki (human IL-23R; [2])	IC50 [1, 3]	Ki (human IL-23R)	IC50 [1]	other results
CC(=O)N[C@@H](CC(=O)O)C(=O)N[C@H]1CCC(=O)NCCCC[C@@H](C(=O)N[C@@H](CCCNC(=N)N)C(N)=O)NC(=O)[C@H](CC(C)C)NC(=O)[C@H](Cc2c[nH]c3ccccc23)NC(=O)[C@H](Cc2c[nH]c3ccccc23)NC(=O)[C@@H]2CSCC(=O)CSC[C@H](NC(=O)[C@H](CO)NC1=O)C(=O)N[C@@H](C)C(=O)N[C@@H](CCC(N)=O)C(=O)N2 [Compound 13, [Ac]-DE(1c)SC(2a)AQC(2a)WWLK(1c)R-[NH2]] (HELM PEPTIDE1{[ac].D.E.S.C.A.Q.C.W.W.L.K.R.[am]}|CHEM1{[O=C(C[*:1])C[*:2]]}$PEPTIDE1,PEPTIDE1,3:R3-12:R3|PEPTIDE1,CHEM1,5:R3-1:R1|PEPTIDE1,CHEM1,8:R3-1:R2$$$V2.0)	> 1000 nM	> 1000 nM	–	–	–
CC(C)C[C@@H]1NC(=O)[C@H](Cc2c[nH]c3ccccc23)NC(=O)[C@H](Cc2c[nH]c3ccccc23)NC(=O)[C@@H]2CCCCNC(=O)CC[C@H](NC(=O)[C@H](CO)NC(=O)[C@@H](NC(=O)[C@@H](N)CC(=O)O)CSCC(=O)CSC[C@@H](C(=O)N[C@@H](CCCNC(=N)N)C(N)=O)NC1=O)C(=O)N[C@@H](Cc1c[nH]c3ccccc13)C(=O)N[C@@H](CCC(N)=O)C(=O)N2 [Compound 5, H-DC(1a)SE(2c)WQK(2c)WWLC(1a)R-[NH2]] (HELM PEPTIDE1{D.C.S.E.W.Q.K.W.W.L.C.R.[am]}|CHEM1{[O=C(C[*:1])C[*:2]]}$PEPTIDE1,CHEM1,2:R3-1:R1|PEPTIDE1,CHEM1,11:R3-1:R2|PEPTIDE1,PEPTIDE1,4:R3-7:R3$$$V2.0)	> 1000 nM	> 1000 nM	–	–	–
CC(C)C[C@@H]1NC(=O)[C@H](Cc2c[nH]c3ccccc23)NC(=O)[C@H](Cc2c[nH]c3ccccc23)NC(=O)[C@@H]2CSSC[C@H](NC(=O)[C@H](CO)NC(=O)[C@@H](NC(=O)[C@@H](N)CC(=O)O)CSSC[C@@H](C(=O)N[C@@H](CCCNC(=N)N)C(N)=O)NC1=O)C(=O)N[C@@H](Cc1c[nH]c3ccccc13)C(=O)N[C@@H](CCC(N)=O)C(=O)N2 [Ref 1, H-DC(1b)SC(2b)WQC(2b)WWLC(1b)R-[NH2], reference compound]	–	–	> 1000 nM	> 1000 nM	IL-23R inhibitory activity (in words) (human IL-23R; with reference to Ki and IC50 data of the Examples): inactive; IC50 ([1]; read-out: IC50 (pSTAT3), Table 3-1, DB cells): > 1000 nM
CC(=O)N[C@H]1CCCCNC(=O)CC[C@@H](C(=O)N[C@@H](CCCNC(=N)N)C(N)=O)NC(=O)[C@H](CC(C)C)NC(=O)[C@H](Cc2ccc3ccccc3c2)NC(=O)[C@H](Cc2ccc(OCCN)cc2)NC(=O)[C@@H]2CSCC(=O)CSC[C@H](NC(=O)[C@H](CO)NC1=O)C(=O)N[C@@H](Cc1c[nH]c3ccccc13)C(=O)N[C@@H](CCC(N)=O)C(=O)N2 [Compound 29, [Ac]-K(1c)SC(2a)WQC(2a)[Y(2-aminoethoxy)][2-Nal]LE(1c)R-[NH2]] (Ac-KSCWQC[AEF][2Nal]LER-NH2; lactam 1-10; linker 3-6 via CH2COCH2)	0.68 nM	–	–	–	Ki (human IL-23R; Table 2-9b, read-out: Ki IL-23R): 0.64 nM; IC50 ([1]; Table 2-9b, DB cells, read-out: IC50 (pSTAT3)): 19.7 nM
CC(=O)N[C@@H](CC(=O)O)C(=O)N[C@H]1CCCCNC(=O)CC[C@@H](C(=O)N[C@@H](CCCNC(=N)N)C(N)=O)NC(=O)[C@H](CC(C)C)NC(=O)[C@H](Cc2ccc3ccccc3c2)NC(=O)[C@H](Cc2c[nH]c3ccccc23)NC(=O)[C@@H]2CSCc3ccccc3CSC[C@H](NC(=O)[C@H](CO)NC1=O)C(=O)N[C@@H](Cc1c[nH]c3ccccc13)C(=O)N[C@@H](CCC(N)=O)C(=O)N2 [Compound 20, [Ac]-DK(1c)SC(2d)WQC(2d)W[2-Nal]LE(1c)R-[NH2]] (HELM PEPTIDE1{[ac].D.K.S.C.W.Q.C.W.[O=C([C@H](Cc1ccc2ccccc2c1)N[*:1])[*:2]].L.E.R.[am]}|CHEM1{[c1ccc(C[*:2])c(C[*:1])c1]}$PEPTIDE1,PEPTIDE1,3:R3-12:R3|PEPTIDE1,CHEM1,5:R3-1:R1|PEPTIDE1,CHEM1,8:R3-1:R2$$$V2.0)	–	–	–	–	Ki (human IL-23R; Table 2-7b, read-out: Ki IL-23R): 24.6 nM; IC50 ([1]; Table 2-7b, DB cells, read-out: IC50 (pSTAT3)): 79.2 nM
CC(=O)N[C@@H](CC(=O)O)C(=O)N[C@H]1CSCC(=O)CSC[C@@H](C(=O)N[C@@H](CCCNC(=N)N)C(N)=O)NC(=O)[C@](C)(CC(C)C)NC(=O)[C@H](Cc2c[nH]c3ccccc23)NC(=O)[C@H](Cc2ccc3ccccc3c2)NC(=O)[C@@H]2CSCC(=O)CSC[C@H](NC(=O)[C@H](CCC(N)=O)NC1=O)C(=O)N[C@@H](Cc1c[nH]c3ccccc13)C(=O)N[C@@H](CCC(N)=O)C(=O)N2 [Compound 62, [Ac]-DC(1a)QC(2a)WQC(2a)[2-Nal]W[2-Me-Leu]C(1a)R-[NH2]] (Ac-DCQCWQC[2Nal]W[αMeL]CR-NH2; linker 2-11, 4-7 via CH2COCH2)	–	–	> 1000 nM	> 1000 nM	–
CC(=O)N[C@H]1CCCCNC(=O)CC[C@@H](C(=O)N[C@@H](CCCNC(=N)N)C(N)=O)NC(=O)[C@H](CC(C)C)NC(=O)[C@H](Cc2ccc3ccccc3c2)NC(=O)[C@H](Cc2c[nH]c3ccccc23)NC(=O)[C@@H]2CSCC(=O)CSC[C@H](NC(=O)[C@H](CO)NC1=O)C(=O)N[C@@H](Cc1ccc(-c3ccccc3)cc1)C(=O)N[C@@H](CCC(N)=O)C(=O)N2 [Compound 26, [Ac]-K(1c)SC(2a)[Bip]QC(2a)W[2-Nal]LE(1c)R-[NH2]] (Ac-KSC[Bip]QCW[2Nal]LER-NH2; lactam 1-10; linker 3-6 via CH2COCH2)	> 1000 nM	> 1000 nM	–	–	–
CC(=O)N[C@@H](CC(=O)O)C(=O)N[C@H]1CSCC(=O)CSC[C@@H](C(=O)N[C@@H](CCCNC(=N)N)C(N)=O)NC(=O)[C@](C)(CC(C)C)NC(=O)[C@H](Cc2c[nH]c3ccccc23)NC(=O)[C@H](Cc2ccc(O)cc2)NC(=O)[C@@H]2CSCC(=O)CSC[C@H](NC(=O)[C@H](CCC(N)=O)NC1=O)C(=O)N[C@@H](Cc1c[nH]c3ccccc13)C(=O)N[C@@H](CCC(N)=O)C(=O)N2 [Compound 63, [Ac]-DC(1a)QC(2a)WQC(2a)YW[2-Me-Leu]C(1a)R-[NH2]] (Ac-DCQCWQCYW[αMeL]CR-NH2; linker 2-11, 4-7 via CH2COCH2)	–	–	> 1000 nM	> 1000 nM	–
CC(=O)N[C@@H](CC(=O)O)C(=O)N[C@H]1CCC(=O)NCCCC[C@@H](C(=O)N[C@@H](CCCNC(=N)N)C(N)=O)NC(=O)[C@](C)(CC(C)C)NC(=O)[C@H](Cc2c[nH]c3ccccc23)NC(=O)[C@H](Cc2ccc3ccccc3c2)NC(=O)[C@@H]2CSCC(=O)CSC[C@H](NC(=O)[C@H](CCC(N)=O)NC1=O)C(=O)N[C@@H](Cc1c[nH]c3ccccc13)C(=O)N[C@@H](CCC(N)=O)C(=O)N2 [Compound 56, [Ac]-DE(1c)QC(2a)WQC(2a)[2-Nal]W[2-Me-Leu]K(1c)R-[NH2]] (Ac-DEQCWQC[2Nal]W[αMeL]KR-NH2; lactam 2-11; linker 4-7 via CH2COCH2)	–	> 1000 nM	–	–	–
CC(=O)N[C@@H](CC(=O)O)C(=O)N[C@H]1CCC(=O)NCCCC[C@@H](C(=O)N[C@@H](CCC(=O)O)C(=O)N[C@@H](CC(N)=O)C(=O)NCC(N)=O)NC(=O)[C@](C)(CCCCN)NC(=O)[C@H](Cc2ccc3ccccc3c2)NC(=O)[C@H](Cc2c[nH]c3ccccc23)NC(=O)[C@@H]2CSCC(=O)CSC[C@H](NC(=O)[C@H](CO)NC1=O)C(=O)N[C@@H](Cc1c[nH]c3ccccc13)C(=O)N[C@@H](CCC(N)=O)C(=O)N2 [Compound 61, [Ac]-DE(1c)SC(2a)WQC(2a)W[2-Nal][2-Me-Lys]K(1c)ENG-[NH2]] (Ac-DESCWQCW[2Nal][αMeK]KENG-NH2; lactam 2-11; linker 4-7 via CH2COCH2)	–	> 1000 nM	–	–	–
